From patent US7435551B2, “Method for diagnosing type II diabetes or monitoring therapeutic effects of therapeutic agents for type II diabetes” (Fujirebio, Inc., priority 2001, dated 2008)

Key:
Type in all cases: in vivo, human
[1] = Three-month pioglitazone administration to type II diabetes patients: serum insulin (EIA) and HOMA-IR
From the text: (§1) 10 male patients with type II diabetes (ages: 40 to 66, 57.7±7.4) either being only under diet therapy (n=7) or being under diet therapy and on medication of sulfonylurea (n=3) were subjected to inspection regarding the following parameters before and after a three-month administration of a thiazolidine derivative, pioglitazone. Body weights, blood glucose levels, and blood pressure levels of those patients and treatments for them were at constant levels for at least 3 months before the examination. The sulfonylurea doses for 3 patients were at constant levels during that period. Pioglitazone was administered to all 10 patients after breakfast every day (orally, 30 mg/day).
(§2) The systolic blood pressure (SBP) and the diastolic blood pressure (DBP) were measured twice in a sitting position after an at least 5-minute recess. Body heights, weights, and levels of fasting plasma glucose (FPG), HbA1C, serum insulin, adiponectin, total cholesterol (TC), triglyceride (TG), HDL-cholesterol, LDL-cholesterol, and uric acid were measured in the morning after an overnight fast. Levels of plasma glucose, lipids, and uric acid were measured by a common automated measuring technique. The serum concentration of insulin was measured using a commercially available kit, EIA (Tosoh, Tokyo), as already described (Kawai, T. et al., Metabolism 48: 1102-1107, 1999; Hirose, H. et al., Clin. Sci. (Colch) 94: 633-636, 1998; Hirose, H. et al., J. Hypertens. 16: 2007-2012, 1998; Hirose, H. et al., Clin. Sci. (Colch) 100: 145-150, 2001). The insulin resistance index was evaluated by the Homeostasis model assessment (HOMA-IR) (Matthews, D. R. et al., Diabetologia 28: 412-419, 1985; Rudenski, A. S. et al., Metabolism 40: 908-917, 1991).

adiponectin (GBP28) = assay: Serum GBP28 (adiponectin) by ELISA before and after three-month pioglitazone
Procedure: The patients who had been employed in Example 1 were also subjected to an assay of the blood concentration of GBP28 before and after the three-month administration of pioglitazone.
The anti-human GBP28 monoclonal antibody was prepared in the following manner. First, a solution of GBP28 (about 50 μg) isolated and purified from human serum was micellized with a complete adjuvant, and the resultant was administered to a mouse intraperitoneally. Two weeks later, the mouse was subjected to booster, the spleen was extirpated 3 days thereafter, and the B-cell was collected. The B-cell and the myeloma cell were allowed to fuse with each other to prepare hybridomas, and a hybridoma of interest was administered to a mouse intraperitoneally. Thereafter (20 days later), ascites was processed with DEAE-Sepharose Fast Flow, and the monoclonal antibody of interest was obtained.
GBP28 was assayed by ELISA in the following manner. A standard GBP28 sample, a 441-fold-diluted unknown sample, and a control sample (100 μl each) were added to a 96-well microtiter plate coated with the mouse anti-GBP28 monoclonal antibody. The plate was incubated for 60 minutes, the well was washed, and incubation was carried out for additional 30 minutes with the horseradish peroxidase-labeled mouse anti-GBP28 monoclonal antibody. The plate was washed again, and incubation was carried out for 30 minutes with a tetramethylbenzidine reagent. Subsequently, 100 μl of aqueous solution of 0.36N sulfuric acid was added to each well to terminate the reaction, and the absorbance at 450 nm was assayed. Intra- and interassay coefficients were 4.8% to 4.9% and 3.3% to 6.8%, respectively.

[2] = Three-month pioglitazone administration to type II diabetes patients: fasting glucose, HbA1c, lipids, uric acid
From the text: as §1, §2

[3] = Assessment of body fat distribution by CT scan before and after three-month pioglitazone; conditions: type II diabetes patients n=10, 30 mg/day orally, mean ± S.D.
Procedure: The patients who had been also employed in Example 1 were subjected to the assessment of body fat distribution before and after the three-month administration of pioglitazone. Distributions of subcutaneous fat and visceral fat were determined by assessing the region of a Hounsfield unit of −150 to −50 by a method modified from the computerized tomography (CT) scan at the level of the navel by Tokunaga et al. (Tokunaga, K. et al., Int. J. Obes. 7: 437-445, 1983). CT images at the baseline and after a three-month treatment were taken in accordance with the same protocols that had been previously reported by the present inventors (Kawai, T. et al., Metabolism, 48: 1102-1107, 1999). The V/S ratio was calculated by dividing the visceral fat area (VFA) by the subcutaneous fat area (SFA).

[4] = Three-month pioglitazone administration to type II diabetes patients: body mass index and blood pressure; conditions: type II diabetes patients n=10, 30 mg/day orally, mean ± S.D.
From the text: as §1, §2

[5] = type II diabetes patients n=10, 30 mg/day orally, 3 months, mean ± S.D.
[6] = type II diabetes patients n=10, 30 mg/day orally, logarithmic values, mean ± S.D.
[7] = type II diabetes patients, three-month administration, given without sign
[8] = type II diabetes patients n=10, 30 mg/day orally, mean ± S.D.

In the case of CCc1ccc(CCOc2ccc(CC3SC(=O)NC3=O)cc2)nc1 (stereo not drawn) [pioglitazone], the “HOMA-IR (log), after the three-month trace” value [1, 5] is reported as 1.6 ± 1.3^, the “Serum insulin (log), after the three-month trace” value [1, 5] is reported as 30 ± 8 pmmol/l and the “HOMA-IR (log), rate of change in 3 months” value [1, 6] is reported as −62.6 ± 22.6. The “Serum insulin (log), rate of change in 3 months” value [1, 6] was −23.7 ± 13.5, the “Rate of change of HOMA-IR over three months” value [1, 7] was 62.6% and the “Rate of change of serum insulin over three months” value [1, 7] was 23.7%. For the same molecule, the “Elevation in serum adiponectin level, times higher than the baselines on average” value (adiponectin (GBP28); 10 type II diabetes patients, three-month administration) was 3 times, the “GBP28 (log), after the three-month trace” value (adiponectin (GBP28); type II diabetes patients n=10, 30 mg/day orally, 3 months, serum, mean ± S.D.) was 14.4 ± 2.1 μg/l and the “GBP28 (log), rate of change in 3 months” value (adiponectin (GBP28); [6]) was 80.9 ± 58^. For the same molecule, the “Rate of change of concentration of GBP28 over three months” value (adiponectin (GBP28); type II diabetes patients, three-month administration) was 80.9%, the “Fasting blood glucose, after the three-month trace” value [2, 5] was 7.0 ± 1.0^ mmol/l and the “HDL cholesterol, after the three-month trace” value [2, 5] was 52.1 ± 7.3 mg/dL. The “HbA1c, after the three-month trace” value [2, 5] was 6.1 ± 0.6^ %, the “LDL cholesterol, after the three-month trace” value [2, 5] was 138 ± 24 mg/dL and the “Total cholesterol, after the three-month trace” value [2, 5] was 218 ± 35 mg/dL. For the same molecule, the “Triglyceride (log), after the three-month trace” value [2, 5] was 127 ± 2 mg/dl, the “Uric acid, after the three-month trace” value [2, 5] was 5.6 ± 1.3^ mg/dl and the “Triglyceride (log), rate of change in 3 months” value [2, 6] was −1.0 ± 6.3. For the same molecule, the “Fasting blood glucose, rate of change in 3 months” value [2, 8] was −18.2 ± 9.3, the “HDL cholesterol, rate of change in 3 months” value [2, 8] was 2.0 ± 11.2 and the “HbA1c, rate of change in 3 months” value [2, 8] was −9.0 ± 8.8. The “LDL cholesterol, rate of change in 3 months” value [2, 8] was 12.3 ± 12.8, the “Total cholesterol, rate of change in 3 months” value [2, 8] was 4.8 ± 10.9 and the “Uric acid, rate of change in 3 months” value [2, 8] was −5.0 ± 9.5. The “Rate of change of HbA1C over three months” value [2, 7] was 9.0%, the “Rate of change of blood glucose over three months” value [2, 7] was 18.2% and the “Subcutaneous Fat Area, after the three-month trace” value ([3]; 3 months, CT at navel level) was 179 ± 81 cm^2. For the same molecule, the “Visceral Fat Area, after the three-month trace” value ([3]; 3 months, CT at navel level) was 180 ± 46 cm^2, the “V/S ratio, after the three-month trace” value ([3]; 3 months, VFA divided by SFA) was 1.1 ± 0.3 and the “Subcutaneous Fat Area, rate of changes in 3 months” value [3] was 16.1 ± 18.7. For the same molecule, the “V/S ratio, rate of changes in 3 months” value [3] was −4.0 ± 11.2, the “Visceral Fat Area, rate of changes in 3 months” value [3] was 11.3 ± 21.3 and the “Body Mass Index, after the three-month trace” value ([4]; 3 months) was 27.0 ± 3.5 kg/m^2. The “Body Mass Index, rate of change in 3 months” value [4] was 2.1 ± 2.2, the “Body mass index at diastolic blood pressure, rate of change in 3 months” value [4] was −6.3 ± 6.9 and the “Body mass index at systolic blood pressure, rate of change in 3 months” value [4] was −7.0 ± 4.9.
